Laboratory results from US12036229B2, “Use of phosphorylated heptose compounds” (NATIONAL RESEARCH COUNCIL OF CANADA, priority 2017, dated 2024).

Tested on: CT26 cells (colon carcinoma from BALB/c mice)
Test: CT26 tumour model in BALB/c mice
Assay type: in vivo
Settings: intraperitoneal; HMP 200 μg per day D10, D11, D12; LPS 1x at 3 mg/kg; 11 day period, vs PBS; FIG. 14c

## lipopolysaccharide [LPS]
  change in tumour volume relative to day 10 (rate of tumour growth): significantly reduced the rate of tumour growth
